Results: patent US20260284051A1, “METHIONINE ADENOSYLTRANSFERASE 2A (MAT2A) INHIBITOR COMBINATIONS AND USES THEREOF” (INSILICO MEDICINE IP LIMITED, priority 2023, published 2026)

Assays:
Type in all cases: in vivo
Settings in all cases: for Tumor volume (mm^3) Final (mean): Mean ± SD
KP4 MTAP null xenografts = assay: Efficacy study of KP-4 human pancreatic cancer xenograft model in NOD SCID mice
Experimental: Efficacy Study of KP-4 Human Pancreatic Cancer Xenograft Model in NOD SCID Mice
The KP-4 tumor cell line was maintained in vitro as monolayer culture in RPMI 1640 medium supplemented with 10% fetal bovine serum at 37° C. in an atmosphere of […] in air. The tumor cells were routinely subculture weekly by trypsin-EDTA treatment, not to exceed 4-5 passages. The cells growing in an exponential growth phase was harvested and counted for tumor inoculation.
Each mouse was inoculated subcutaneously on the central right flank with KP-4 tumor cells (1×10^7) in 0.1 mL of RPMI-1640 without serum for the tumor development. The treatment started when the mean tumor size reached approximately 100 mm^3. Mice were assigned to groups such that the mean tumor volume is the same for each treatment group and time point.
For routine monitoring, all study animals were monitored for not only tumor growth but also behavior such as mobility, food, and water consumption (by cage side checking only), body weight (BW), eye/hair matting and any other abnormal effect. Any mortality and/or abnormal clinical signs were recorded.
Body weights of all animals were measured twice a week throughout the study. Body weight change, expressed in %, will be calculated using the following formula: BW change (%)=(BWDay x/BWDay 0)×100, where BWDay x is BW on a given day, and BWDay 0 is BW on Day 0 (initiation of treatment).
The measurement of tumor size were conducted twice a week with a caliper and the tumor volume (mm^3) was estimated using the formula: TV=a×b^2/2, where a and b are long and short diameters of a tumor, respectively. The TVs were used for calculation of the tumor growth inhibition (TGI, an indicator of antitumor effectiveness) value using the formula: TGI (%)=[1−(Tn−T0)/(Cn−C0)]×100%, only over the dosing period (dosing days 0 to days n). Where: Tn—is the avg tumor volume at the respective day “n” after dosing throughout treatment period; T0—is the avg tumor volume in the treatment group at day 0 before treatment (immediately before); Cn—avg tumor volume in the control group at the respective day “n” after dosing throughout treatment period; and C0—average tumor volume in the control group at day 0 before treatment (immediately before). The experiment was terminated when the mean tumor volume exceeded 2000 mm^3 or severe body weight loss.
The statistical software GraphPad Prism (version number: 8) was used to analyze the difference in tumor volume between the treatment group and the solvent control group. Two-way ANOVA and Bonferroni multiple tests were used to compare whether there was a significant difference in tumor volume between the vehicle control group and each treatment group during the administration period.
(§1) Mean tumor volume at dosing start was approximately 102 mm^3, with ten mice randomized to each treatment group. In the KP4 MTAP null tumor model, mice were dosed orally, once per day (QD) with Vehicle, once per day (QD) with Compound 1 at 1, 3 mg/kg, once per day (QD) with AG270 at 100 mg/kg, mice were intravenous, per week with Docetaxel at 2.5 mg/kg, or Compound 1 combined with Docetaxel at each dose level.

[1] = tested on: NCI-H838 MTAP null xenografts; assay: Efficacy study of NCI-H838 human lung cancer xenograft model in NOD SCID mice
Description: Efficacy Study of NCI-H838 Human Lung Cancer Xenograft Model in NOD SCID Mice Methods:
The NCI-H838 cancer cells were maintained in vitro with RPMI-1640 medium supplemented with 10% fetal bovine serum at 37TC in an atmosphere of 5% CO2 in the air. The cells in exponential growth phase were harvested and quantitated by cell counter before tumor inoculation.
NOD SCID mice, female, 6-8 weeks, weighing approximately 20-22 g, All the mice were purchased from Shanghai Lingchang Bio-Tech Co., Ltd.
Each mouse was inoculated subcutaneously at the right flank with NCI-H838 cells in a 0.1 mL of PBS mixed with Matrigel (1:1) for tumor development (5×10^6 cells/mouse). Dosing was started when the average tumor size reached approximately ~150 mm^3 for the tumor efficacy study with tool and med chem molecules to look for efficacy vs vehicle tumor growth.
Mean tumor volume at dosing start was approximately 146.51 mm^3, with six mice randomized to each treatment group. In the NCI-H838 MTAP null tumor model, mice were dosed orally, once per day (QD) with vehicle, once per day (QD) with Compound 1 at 3, 10 mg/kg, mice were intravenous, once per day (QD) with PRMT5 inhibitor MRTX1719 at 50 mg/kg, or Compound 1 combined with MRTX1719 at each dose level.

[2] = tested on: HCC15 MTAP null xenografts; assay: Efficacy study of HCC15 human lung cancer xenograft model in NOD SCID mice
Experimental: Efficacy Study of HCC15 Human Lung Cancer Xenograft Model in NOD SCID Mice Methods:
The HCC15 cells were maintained in vitro as a monolayer culture in 90% 1640+10% FBS, 100U/ml penicillin and 100 μg/ml streptomycin at 37° C. in an atmosphere of 5% CO2 in air. The tumor cells were routinely subcultured at a ratio of 1:2 to 1:3 every 3-4 days. Alternatively, Cultures were maintained by addition or replacement of fresh medium. Started cultures at 5×10^5 cells/mL and maintained between 0.5×10^5 and 2×10^6 cells/ml.
NOD SCID mice, female, 6-8 weeks, weighing approximately 20-22 g.
Each mouse were inoculated subcutaneously at the right flank with HCC15 cells in a 0.2 mL mixture of 1640 for tumor development (5×10^6 cells/mouse). Dosing was started when the average tumor size reaches approximately 100-200 mm^3 for the tumor efficacy study with tool and med chem molecules to look for efficacy vs vehicle tumor growth.
as §1, with “133.09” for “102”, “HCC15” for “KP4”, “at” for “at 1,”

[3] = combination: Compound 1 3 mg/kg QD + Docetaxel 2.5 mg/kg per week
[4] = combination: Compound 1 3 mg/kg QD + Docetaxel 2.5 mg/kg per week, listed as Compound 1
[5] = combination: Compound 1 3 mg/kg QD + MRTX1719 50 mg/kg QD
[6] = combination: Compound 1 10 mg/kg QD + MRTX1719 50 mg/kg QD

C#CCNc1nc(=O)n(-c2cccnc2C)c2cc(C(F)(F)F)cc(OC)c12 [Example 36, 5-methoxy-1-(2-methylpyridin-3-yl)-4-(prop-2-yn-1-ylamino)-7-(trifluoromethyl)quinazolin-2(1H)-one]
TGI (%) (KP4 MTAP null xenografts; Compound 1 1 mg/kg orally QD): 36.8%
Tumor volume (mm^3) Final (mean) (KP4 MTAP null xenografts; Compound 1 1 mg/kg orally QD): 1,484 ± 263 mm^3
TGI (%) (KP4 MTAP null xenografts; Compound 1 3 mg/kg orally QD): 53.4%
Tumor volume (mm^3) Final (mean) (KP4 MTAP null xenografts; Compound 1 3 mg/kg orally QD): 1,121 ± 181 mm^3
effect on tumor growth (in words) (KP4 MTAP null xenografts; combination of Compound 1 (1, 3 mg/kg) and Docetaxel 2.5 mg/kg): significantly inhibited tumor growth in a dose dependent manner
Tumor volume (mm^3) Final (mean) (KP4 MTAP null xenografts; combination: Compound 1 1 mg/kg QD + Docetaxel 2.5 mg/kg per week): 767 ± 101 mm^3
TGI (%) (KP4 MTAP null xenografts; combination: Compound 1 1 mg/kg QD + Docetaxel 2.5 mg/kg per week, listed as Compound 1): 69.6%
Tumor volume (mm^3) Final (mean) (KP4 MTAP null xenografts; [3]): 686 ± 80 mm^3
TGI (%) (KP4 MTAP null xenografts; [4]): 73.2%
TGI (%) ([1]; Compound 1 3 mg/kg orally QD): 1.6%
Tumor volume (mm^3) Final (mean) ([1]; Compound 1 3 mg/kg orally QD): 2029 ± 239 mm^3
TGI (%) ([1]; Compound 1 10 mg/kg orally QD): 19.9%
Tumor volume (mm^3) Final (mean) ([1]; Compound 1 10 mg/kg orally QD): 1678 ± 113 mm^3
effect on tumor growth (in words) ([1]; combination of Compound 1 (3, 10 mg/kg) and MRTX1719 50 mg/kg): significantly inhibited tumor growth
synergy effect ([1]; combination: Compound 1 3 mg/kg + MRTX1719 50 mg/kg): 1.02
TGI (%) [1, 5]: 83.2%
Tumor volume (mm^3) Final (mean) [1, 5]: 468 ± 115 mm^3
synergy effect ([1]; combination: Compound 1 10 mg/kg + MRTX1719 50 mg/kg): 1.21
TGI (%) [1, 6]: 103.1%
Tumor volume (mm^3) Final (mean) [1, 6]: 88 ± 7 mm^3
Tumor volume (mm^3) Final (mean) ([2]; Compound 1 3 mg/kg orally QD): 596 ± 63 mm^3
TGI (%) ([2]; Compound 1 3 mg/kg orally QD, listed as Compound 1, 3 mg/kg): 49.6%
effect on tumor growth (in words) ([2]; combination of Compound 1 3 mg/kg and Docetaxel 2.5 mg/kg): significantly inhibited tumor growth
Tumor volume (mm^3) Final (mean) [2, 3]: 399 ± 42 mm^3
TGI (%) [2, 4]: 71.2%
